From a melting point compilation (Tetko et al.; mined from patent text by program, amines drawn as free bases though some values may be those of a salt) come the findings set out here.

SMILES strings stand for the structures.

Turning to `COc1ccc2c(c1)c(Cc1cc(=O)n(-c3cccc([N+](=O)[O-])c3)[nH]1)c(C)n2C(=O)c1ccc(Cl)cc1`, the melting point (as a rule, the temperature, or range, at which the solid turns liquid) lay in the range of 95 to 97 °C.
In turn, `c1ncn(Cc2nc(-c3ccc4c(c3)OCO4)c3cc4c(cc3n2)OCO4)n1` gave a melting point of 195 to 198 °C.
The result for `CCOc1cnc(C2=NC(=O)C(C)(C(C)C)N2)c(C(=O)O)c1` (stereo not drawn) reads 140 to 144 °C; that for `CC(=O)Nc1ccc(Nc2nnc(Cc3ccncc3)c3ccccc23)cc1`, above 270 °C; that for `COc1ccccc1C(=O)Nc1ccc(N2CCCC2)cc1C(C)=O`, 168 to 170 °C.
The compound `FC(F)(F)c1n[nH]c2ccc(Br)cc12` registered a melting point of 168 to 169 °C.
The compound `O=C1NCC2(CCN(C(=O)OCc3ccccc3)CC2)O1` came in with a melting point of 126 to 128 °C.
In the case of `CC(C)(C)OC(=O)N1CCc2c(n(CC(=O)Nc3ccccc3)c3ccc(Cl)c(Cl)c23)CC1`, the melting point is 208 to 210 °C.
Consider `Fc1ccc2[nH]c3c(c2c1)CCNC3c1ccc2c(c1)OCO2` (stereo not drawn), for which the melting point turned out to be 172 °C.
Compound `O=c1ccccn1C1=CC(CF)(CF)Oc2ccc(C(F)(F)C(F)(F)C(F)(F)F)cc21` gave a melting point of 101 to 104 °C.
With `Clc1ccc(-c2ccnc(CN3CCC(c4ccc(Cl)cc4)CC3)c2)cc1`, the melting point lay within 89 to 91 °C.
In turn, `COc1cc(Cl)ccc1C(=O)NC1CN(c2ccc(F)cc2)CCn2c1nc(-c1ccncn1)cc2=O` (racemic) showed a melting point of 207 to 209 °C.
Turning to `OCCCCCCCCCCCOc1ccc(-c2nc(-c3ccccc3)nc(-c3ccc(OCCCCCCCCCCCO)cc3O)n2)c(O)c1`, the melting point is 126 to 135 °C.
In turn, `CCOc1ccc(OCC(=O)O)c2c1C(=O)N(CSc1nnnn1-c1ccccc1)S2(=O)=O` returned a melting point of 187 to 189 °C.
The result for `CCCCCC(O)CCc1ccc(CCCCCCCC(=O)O)o1` (stereo not drawn) reads 43 to 45 °C; that for `COC1=C(c2cccc(C(F)(F)F)c2)C(=O)OC1`, 126 °C.
`O=C(O)c1ccccc1-c1n[nH]c(-c2cccc(C(F)(F)F)c2)n1` returned a melting point of 200 °C.
`Cc1ccc(S(=O)(=O)N(CC(=O)OCc2ccccc2)c2ccc(Cl)cc2C(=O)c2ccccc2Cl)cc1`: the melting point was 99 to 101 °C.
The compound `CCc1[nH]n(C2CCCC2)c2nc(-c3ccc4c(c3)CC(C)O4)nc(=O)c1-2` (stereo not drawn) registered a melting point of 164 to 165 °C.
The result for `O=c1[nH]c2ccccc2c2cc(CC(=S)N3CCOCC3)nn12` reads 273 to 275 °C; that for `COc1ccc2c(c1)nnc1cc(OC)ccc12`, 200 to 202 °C.
The compound `Cc1nc(Cl)c2sccc2n1` had a melting point of 82 to 84 °C.
Consider `O=C(O)c1cc(Cl)c(C(=O)O)c([N+](=O)[O-])c1Cl`, for which the melting point lay within 287 to 288 °C.
The figure for `O=C(NCc1ccc(F)cc1)c1ccnc(N2CCN(CC3CC3)C2=O)c1` is 150 to 151 °C; for `CN(C)CCC1=Cc2ccccc2N(C)c2ccccc21` it is 78 °C; for `CC(=O)c1cc2c(s1)CCCC2NC(N)=O` (stereo not drawn) it is 218 to 220 °C.
As for `Cc1c(C=O)c2c(c(C)c1NC(=O)NC(C)(C)C)C(c1ccc(C(C)C)cc1)CO2` (single isomer, unassigned; (-)), the melting point is 209 to 210 °C.
`CSc1nc(Cl)c2ccsc2n1` yielded a melting point of 105 to 107 °C.
The figure for `CCOCc1ccc(C=C(C)c2ccc3c(c2)C(C)(C)CCO3)cc1` is 59 to 60 °C; for `COc1cc(OC)nc(-n2c(C(F)(F)F)nc3cc(C)ccc32)n1` it is 93 to 96 °C.
As for `CNc1nc(-c2cccc(-c3cnc4ccccc4c3)c2)c2cc(OC)c(OC)cc2n1`, the melting point was 218 to 220 °C.
For `CCCCCCCCCCCCCC(=O)Nc1ccc(OC)c(Nc2cc(=O)n(-c3c(Cl)cc(Cl)cc3Cl)[nH]2)c1`, the melting point lay within 89 to 93 °C.
In turn, `CCCCCC(=O)OCn1cc(F)c(=O)[nH]c1=O` showed a melting point of 95 to 96 °C.
Compound `CCCCCCCCCCCNC(=O)N(CC)CC` returned a melting point of 33 to 35 °C.
In turn, `CCC(O)c1nc2c(C(F)(F)F)cccc2c(O)c1C(=O)Nc1nccs1` (stereo not drawn) registered a melting point of 180 °C.
Turning to `CCCCCCOc1ccccc1C(=O)CCCCC(=O)O`, the melting point lay in the range of 64 to 65 °C.
Regarding `CCOC(=O)c1c(NCc2ccccc2)n[nH]c1C`, the melting point fell in the range of 149 to 159 °C.
The figure for `CS(=O)(=O)OCC1CC(=O)N(c2ccc(-c3ccc(C#N)cc3)cc2)C1` (stereo not drawn) is 183 to 186 °C; for `Cc1cc(-c2ccc(-c3c(Cc4ccccc4)oc4ccccc34)cc2)cc(C)c1OS(=O)(=O)c1ccc(C(=O)O)c(O)c1` it is 165 to 167 °C.
`COc1ccc2c(c1)CCC1=C2CCC(=O)C1` registered a melting point of 75 to 77 °C.
As for `Nc1nc(-c2ccccc2)c(CCO)c2ncnn12`, the melting point is 194 to 195 °C.
With `CN1C(=O)N(c2ccc(C#N)c(C(F)(F)F)c2)C(=O)C1(C)C`, the melting point is 158 °C.
`Nc1c(-n2cncn2)cnn1-c1c(Cl)cc(C(F)(F)F)cc1Cl` returned a melting point of 170 to 174 °C.
In the case of `CC(=O)OCCC1CCN(CCCN2c3cc(OCc4ccccc4)ccc3Sc3c2cccc3S(=O)(=O)N(C)C)CC1`, the melting point lay within 94 to 96 °C.
As for `CC(=O)OCC(=O)C1(O)C(C)CC2C3CC(C)C4=CC(=O)CCC4(C)C3=CCC21C` (stereo not drawn), the melting point fell in the range of 197 to 199 °C.
The figure for `COC(=O)c1ccc(F)cc1NS(C)(=O)=O` is 116 °C.
The figure for `COc1cc2[nH]c(=O)c(-c3csc(-c4cccnc4)n3)c(N)c2cc1OC` is above 250 °C; for `Cc1cc(C#N)ccc1C1(CC2c3ccccc3Oc3ccccc32)NC(=O)NC1=O` (stereo not drawn) it is 148 to 152 °C.
The figure for `CNc1cc(NC)cc(C(O)CS(C)(=O)=O)c1` (stereo not drawn) is 106 °C.
On to `COc1cc(COc2nn(Cc3ccccc3)cc2C(=O)O)ccc1OCc1nc(-c2ccccc2)oc1C`, for which the melting point is 162 to 163 °C.
On to `COc1ccc(-n2nnnc2C(F)(F)F)c(OC)c1CO`, for which the melting point lay in the range of 74 to 79 °C.
As to `COc1cc(C)cc(OC)c1-c1nc(N)n[nH]1`, the melting point was 286 °C.
With `CN(C)C12CN3CN(CN(C3)C1)C2`, the melting point lay within 110 to 111 °C.
With `Nc1ccc(OCc2ccc3ccccc3n2)cc1`, the melting point lay within 126 to 128 °C.
As for `CCCCCCOc1ccc(F)c(C(N)=O)c1Cl`, the melting point was in the range of 66 to 68 °C.
As for `CS(=O)(=O)OCCC1(c2ccccc2)C=CCC=C1`, the melting point is 64 to 65 °C.
The compound `Cc1ccc(C(=O)Nc2ccc(CCc3ccc(O)c(O)c3)cc2)c(O)c1` registered a melting point of 201 to 202 °C.
For `Cc1oc(-c2ccccc2)nc1Cc1cc2cc(C=C3OC(=O)NC3=O)ccc2o1`, the melting point lay in the range of 185 to 200 °C.
Turning to `CCOc1ccc(C=CC(=O)c2c(O)cc(OCC)cc2OCC)cc1`, the melting point is 131 °C.
Take `Cc1oc(-c2ccco2)nc1COc1ccc(COc2nn(Cc3ccccc3)cc2C(=O)O)cc1`: the melting point lay in the range of 170 to 171 °C.
For the compound `Cc1nc2c3c(ccc2n1C)C(=O)[C@H](O)[C@@H](c1ccccc1)O3`, the melting point was 233 °C.
As to `CCN(CC)C(=O)C=Cc1ccc(C)c(C)c1`, the melting point was 36.6 °C.
For `Ic1cnc(N2CCNCC2)nc1`, the melting point is 39 to 40 °C.
In turn, `O=C(O)CC1CCCc2c1n(Cc1ccc(Cl)cc1)c1ccc(C(F)(F)F)cc21` (stereo not drawn) gave a melting point of 167 to 168 °C.
`CCC(=O)NCCC1=CCc2ccc(OC)cc21` came in with a melting point of 61 to 63 °C.
`CC(=O)N1CCc2ccc(SCc3ccccc3)c(N)c2C1`: the melting point was 133 to 136 °C.
The figure for `O=C(Nc1ccc(Cl)cc1Cl)c1cc(Cl)c(Cl)[nH]1` is 262 to 264 °C.
The result for `CCN(CC)C(=O)n1cnc(S(=O)(=O)CC2CCCC2)n1` reads 77 to 79 °C; that for `O=C(Cc1ccc(F)cc1F)c1ccc(I)cc1F`, 81 to 82 °C.
`CCC(=O)C1=CCC(c2c(C)c(C)c3c(c2Cl)CC(C)(CC)C3)CC1=O` (stereo not drawn): the melting point is 55 to 57 °C.
The compound `CNC(Cc1ccccc1)C(=O)N[C@@H](Cc1cccc2ccccc12)C(=O)O` (stereo partly drawn) gave a melting point of 104 to 107 °C.
The figure for `CCOC(=O)Nc1cc(COC(=O)Oc2ccc(N(CCCl)CCCl)cc2)cc(Nc2c3ccccc3nc3ccccc23)c1` is 131 to 133 °C; for `O=C1NC(C(=O)NCCO[N+](=O)[O-])C(c2cccc3ccccc23)S1` (stereo not drawn) it is 151 to 153 °C; for `CCCCCCCCc1c(C)[nH]c(C)c(I)c1=O` it is 224 to 226 °C.
Compound `C=C1CC2CC(O)CCC2(C)C2CCC3(C)C(C(C)CCC(=O)O)CCC3C12` (stereo not drawn) came in with a melting point of 104 to 105 °C.
The compound `Cc1ccc(C)n1-c1c(Cl)cc(C(F)(F)F)cc1Cl` came in with a melting point of 63 °C.
The figure for `COC[C@H]1CN(c2noc3cc(OS(=O)(=O)C(F)(F)F)ccc23)C(=O)O1` is 94 °C; for `CC1(C)CCc2c(N3CCOCC3)nc3sc4c(NCCN5CCOCC5)ncnc4c3c21` it is 100 to 101 °C; for `Cc1nn(C(=O)Oc2ccccc2)c(=O)n1N` it is 175 °C.
With `ClCc1cn(C(c2ccccc2)(c2ccccc2)c2ccccc2)cn1`, the melting point is 88 to 91 °C.
In turn, `Cn1ncc2c1-c1c(Oc3ccc(-c4ccc(F)cc4)nc3)sc(C(N)=O)c1CC2` gave a melting point of 236 to 237 °C.
On to `CONC(=O)Nc1ccc(-c2sc3c(c2CCl)c(=O)n(-c2ccc4c(c2)OCCO4)c(=O)n3Cc2c(F)cccc2F)cc1`, for which the melting point was in the range of 204 to 209 °C.
With `COC(=O)c1c(C(=O)OC)c2sc3ccccc3n2c1-c1ccc(OC)cc1`, the melting point fell in the range of 167 to 168 °C.
In the case of `Cc1ccc(-c2cncnc2Cl)cc1`, the melting point was 67 to 70 °C.
For the compound `CN1C(=O)CN=C(c2ccccc2)c2c1cc(Cl)c(N)c2Cl`, the melting point turned out to be 228 °C.
`Cc1ccc(C(=O)c2ccc(SCCO)cc2)cc1C` displayed a melting point of 92 to 93 °C.
Regarding `O=C(CCl)Nc1ccc2c(c1NC(=O)C1CC1)C(=O)c1ccccc1C2=O`, the melting point was 191 to 192 °C.
The figure for `N#CCc1coc2ccc3c(c12)C=CCO3` is 99 to 101 °C.
